Measured values: ChEMBL document CHEMBL1131884, “Dicationic 2-fluorenonylcarbapenems: potent anti-MRS agents with improved solubility and pharmacokinetic properties” (Bioorg Med Chem Lett, 1999)

Tests used:
Staphylococcus aureus = assay: Antibacterial activity against methicillin-resistant Staphylococcus aureus (MRSA); assay type: functional
MecA = target: T1, MecA (Staphylococcus aureus, UniProt Q7DHH4); assay: Binding affinity against PBP2a receptor by competition analysis with [3H]benzylpenicillin using cell membrane fractions from the MRSA COL strain.
T1 sequence (Q7DHH4 whole entry): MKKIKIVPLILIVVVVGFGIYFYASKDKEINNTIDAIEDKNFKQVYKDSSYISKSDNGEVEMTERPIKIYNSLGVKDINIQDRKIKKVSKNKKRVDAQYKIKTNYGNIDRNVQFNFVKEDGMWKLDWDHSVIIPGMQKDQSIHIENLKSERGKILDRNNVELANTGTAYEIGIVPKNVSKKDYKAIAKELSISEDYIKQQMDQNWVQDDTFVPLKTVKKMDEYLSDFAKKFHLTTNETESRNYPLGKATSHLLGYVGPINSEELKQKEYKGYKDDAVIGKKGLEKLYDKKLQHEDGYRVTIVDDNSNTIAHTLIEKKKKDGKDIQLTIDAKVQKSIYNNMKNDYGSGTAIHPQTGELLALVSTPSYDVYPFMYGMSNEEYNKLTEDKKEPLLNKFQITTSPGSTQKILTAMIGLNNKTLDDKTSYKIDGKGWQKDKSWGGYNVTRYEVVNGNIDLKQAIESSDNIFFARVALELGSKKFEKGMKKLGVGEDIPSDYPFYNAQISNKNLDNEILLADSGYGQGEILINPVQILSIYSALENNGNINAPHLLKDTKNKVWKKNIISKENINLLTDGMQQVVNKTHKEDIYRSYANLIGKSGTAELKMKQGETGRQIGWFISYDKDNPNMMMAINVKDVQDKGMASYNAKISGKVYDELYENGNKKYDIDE

Staphylococcus sp. = assay: Antibacterial activity against methicillin-resistant coagulase negative Staphylococci (MRCNS); assay type: functional

Row | Compound | MIC50 (Staphylococcus aureus) [µg/mL] | MIC90 (Staphylococcus aureus) [µg/mL] | IC50 (MecA) [nM] | MIC50 (Staphylococcus sp.) [µg/mL] | MIC90 (Staphylococcus sp.) [µg/mL]
1 | CCCNC(=O)C[N+]12CC[N+](Cc3ccc4c(c3)C(=O)c3ccc(C5=C(C(=O)O)N6C(=O)[C@H]([C@@H](C)O)[C@H]6[C@H]5C)cc3-4)(CC1)CC2.[Cl-].[Cl-] | 2 | 4 | 1230 | 4 | 8
2 | C[C@@H](O)[C@H]1C(=O)N2C(C(=O)O)=C(c3ccc4c(c3)-c3ccc(C[N+]56CC[N+](CC(=O)Nc7cccc(CO)c7)(CC5)CC6)cc3C4=O)[C@H](C)[C@H]12.[Cl-].[Cl-] | 1 | 2 | 1600 | 1 | 4
3 | C[C@@H](O)[C@H]1C(=O)N2C(C(=O)O)=C(c3ccc4c(c3)-c3ccc(C[N+]56CC[N+](C)(CC5)CC6)cc3C4=O)[C@H](C)[C@H]12.[Cl-].[Cl-] | 2 | 4 | 1230 | 4 | 8
4 | C[C@@H](O)[C@H]1C(=O)N2C(C(=O)O)=C(c3ccc4c(c3)-c3ccc(C[N+]56CC[N+](CC(=O)c7ccccc7)(CC5)CC6)cc3C4=O)[C@H](C)[C@H]12.[Cl-].[Cl-] | 1 | 2 | 880 | 2 | 4
5 | CCC[N+]12CC[N+](Cc3ccc4c(c3)C(=O)c3ccc(C5=C(C(=O)O)N6C(=O)[C@H]([C@@H](C)O)[C@H]6C5)cc3-4)(CC1)CC2.[Cl-].[Cl-] | 2 | 4 | 456 | 2 | 4
6 | COc1cccc(NC(=O)C[N+]23CC[N+](Cc4ccc5c(c4)C(=O)c4ccc(C6=C(C(=O)O)N7C(=O)[C@H]([C@@H](C)O)[C@H]7[C@H]6C)cc4-5)(CC2)CC3)c1.[Cl-].[Cl-] | 1 | 1 | 2430 | 1 | 4
7 | C[C@@H](O)[C@H]1C(=O)N2C(C(=O)O)=C(c3ccc4c(c3)-c3ccc(C[N+]56CC[N+](CC(=O)Nc7ccc(CO)cc7)(CC5)CC6)cc3C4=O)[C@H](C)[C@H]12.[Cl-].[Cl-] | 1 | 2 | 2670 | 1 | 4
8 | COc1ccc(NC(=O)C[N+]23CC[N+](Cc4ccc5c(c4)C(=O)c4ccc(C6=C(C(=O)O)N7C(=O)[C@H]([C@@H](C)O)[C@H]7[C@H]6C)cc4-5)(CC2)CC3)cc1.[Cl-].[Cl-] | 1 | 1 | 1190 | 1 | 4
9 | COc1ccccc1NC(=O)C[N+]12CC[N+](Cc3ccc4c(c3)C(=O)c3ccc(C5=C(C(=O)O)N6C(=O)[C@H]([C@@H](C)O)[C@H]6[C@H]5C)cc3-4)(CC1)CC2.[Cl-].[Cl-] | 1 | 2 | 867 | 2 | 4
10 | C[C@@H](O)[C@H]1C(=O)N2C(C(=O)O)=C(c3ccc4c(c3)-c3ccc(C[N+]56CC[N+](CCO)(CC5)CC6)cc3C4=O)[C@H](C)[C@H]12.[Cl-].[Cl-] | 4 | 4 | 1030 | 4 | 8
11 | C[C@@H](O)[C@H]1C(=O)N2C(C(=O)O)=C(c3ccc4c(c3)-c3ccc(C[N+]56CC[N+](CC(=O)Nc7nccs7)(CC5)CC6)cc3C4=O)[C@H](C)[C@H]12.[Cl-].[Cl-] | 2 | 4 | 853 | 4 | 8
12 | C[C@@H](O)[C@H]1C(=O)N2C(C(=O)O)=C(c3ccc4c(c3)-c3ccc(C[N+]56CC[N+](CC(=O)Nc7cccc(C(N)=O)c7)(CC5)CC6)cc3C4=O)[C@H](C)[C@H]12.[Cl-].[Cl-] | 1 | 1 | 1220 | 1 | 2
13 | C[C@@H](O)[C@H]1C(=O)N2C(C(=O)O)=C(c3ccc4c(c3)-c3ccc(C[N+]56CC[N+](CC(=O)Nc7ccc(C#N)cc7)(CC5)CC6)cc3C4=O)[C@H](C)[C@H]12.[Cl-].[Cl-] | 1 | 2 | 1410 | 1 | 4
14 | C[C@@H](O)[C@H]1C(=O)N2C(C(=O)O)=C(c3ccc4c(c3)-c3ccc(C[N+]56CC[N+](CC#N)(CC5)CC6)cc3C4=O)[C@H](C)[C@H]12.[Cl-].[Cl-] | 2 | 4 | 464 | 4 | 8
15 | C[C@@H](O)[C@H]1C(=O)N2C(C(=O)O)=C(c3ccc4c(c3)-c3ccc(C[N+]56CC[N+](CC(=O)NC(C)(C)C)(CC5)CC6)cc3C4=O)[C@H](C)[C@H]12.[Cl-].[Cl-] | 2 | 4 | 3430 | 4 | 8
16 | C[C@@H](O)[C@H]1C(=O)N2C(C(=O)O)=C(c3ccc4c(c3)-c3ccc(C[N+]56CC[N+](CCO)(CC5)CC6)cc3C4=O)C[C@H]12.[Cl-].[Cl-] | 2 | 4 | 276 | 2 | 4
17 | C[C@@H](O)[C@H]1C(=O)N2C(C(=O)O)=C(c3ccc4c(c3)-c3ccc(C[N+]56CC[N+](CC#N)(CC5)CC6)cc3C4=O)C[C@H]12.[Cl-].[Cl-] | 2 | 4 | 474 | 2 | 4
18 | C[C@@H](O)[C@H]1C(=O)N2C(C(=O)O)=C(c3ccc4c(c3)-c3ccc(C[N+]56CC[N+](Cc7ccccc7)(CC5)CC6)cc3C4=O)[C@H](C)[C@H]12.[Cl-].[Cl-] | 1 | 2 | 3250 | 2 | 8
19 | C[C@@H](O)[C@H]1C(=O)N2C(C(=O)O)=C(c3ccc4c(c3)-c3ccc(C[N+]56CC[N+](CC(=O)Nc7ccc(CCO)cc7)(CC5)CC6)cc3C4=O)[C@H](C)[C@H]12.[Cl-].[Cl-] | 1 | 2 | 1310 | 2 | 4
20 | C[C@@H](O)[C@H]1C(=O)N2C(C(=O)O)=C(c3ccc4c(c3)-c3ccc(C[N+]56CC[N+](CC(=O)Nc7ccccc7C(N)=O)(CC5)CC6)cc3C4=O)[C@H](C)[C@H]12.[Cl-].[Cl-] | 2 | 4 | 1020 | 2 | 8
21 | C[C@@H](O)[C@H]1C(=O)N2C(C(=O)O)=C(c3ccc4c(c3)-c3ccc(C[N+]56CC[N+](CC(=O)N(C)C)(CC5)CC6)cc3C4=O)[C@H](C)[C@H]12.[Cl-].[Cl-] | 4 | 8 | 581 | 4 | 16
22 | C[C@@H](O)[C@H]1C(=O)N2C(C(=O)O)=C(c3ccc4c(c3)-c3ccc(C[N+]56CC[N+](C)(CC5)CC6)cc3C4=O)C[C@H]12.[Cl-].[Cl-] | 2 | 8 | 307 | 2 | 4
23 | C[C@@H](O)[C@H]1C(=O)N2C(C(=O)O)=C(c3ccc4c(c3)-c3ccc(C[N+]56CC[N+](CCCO)(CC5)CC6)cc3C4=O)[C@H](C)[C@H]12.[Cl-].[Cl-] | 2 | 4 | 729 | 4 | 8
24 | C[C@@H](O)[C@H]1C(=O)N2C(C(=O)O)=C(c3ccc4c(c3)-c3ccc(C[N+]56CC[N+](CC(=O)NCc7ccccc7)(CC5)CC6)cc3C4=O)[C@H](C)[C@H]12.[Cl-].[Cl-] | 1 | 2 | 1320 | 1 | 4
25 | CCC[N+]12CC[N+](Cc3ccc4c(c3)C(=O)c3ccc(C5=C(C(=O)O)N6C(=O)[C@H]([C@@H](C)O)[C@H]6[C@H]5C)cc3-4)(CC1)CC2.[Cl-].[Cl-] | 4 | 4 | 907 | 4 | 8
26 | C[C@@H](O)[C@H]1C(=O)N2C(C(=O)O)=C(c3ccc4c(c3)-c3ccc(C[N+]56CC[N+](CC(=O)Nc7cccc(C#N)c7)(CC5)CC6)cc3C4=O)[C@H](C)[C@H]12.[Cl-].[Cl-] | 0.5 | 1 | 752 | 1 | 2
27 | C[C@@H](O)[C@H]1C(=O)N2C(C(=O)O)=C(c3ccc4c(c3)-c3ccc(C[N+]56CC[N+](CC(=O)NC7CCCC7)(CC5)CC6)cc3C4=O)[C@H](C)[C@H]12.[Cl-].[Cl-] | 2 | 4 | 1410 | 4 | 8
28 | C[C@@H](O)[C@H]1C(=O)N2C(C(=O)O)=C(c3ccc4c(c3)-c3ccc(C[N+]56CC[N+](CCOc7ccccc7)(CC5)CC6)cc3C4=O)[C@H](C)[C@H]12.[Cl-].[Cl-] | 1 | 2 | 566 | 2 | 4
